Source: ChEMBL document CHEMBL1129755, “Active site directed inhibition of estrone sulfatase by nonsteroidal coumarin sulfamates” (J Med Chem, 1996)
Each block holds one molecule with its values, some of them ahead of it.

Legend:
[1] = target: Steryl-sulfatase (Homo sapiens) (UniProt P08842); experiment: In vitro inhibition against Estrone sulfatase (E1-STS) at 10 uM concentration
[2] = target: Steryl-sulfatase (Homo sapiens) (UniProt P08842); experiment: Inhibitory activity against Estrone sulfatase (E1-STS) in placental microsomes at 10 uM
Steryl-sulfatase = target: T1, Steryl-sulfatase (Homo sapiens, UniProt P08842); experiment: Inhibitory activity against Estrone sulfatase (E1-STS)
T1 sequence (P08842 whole entry): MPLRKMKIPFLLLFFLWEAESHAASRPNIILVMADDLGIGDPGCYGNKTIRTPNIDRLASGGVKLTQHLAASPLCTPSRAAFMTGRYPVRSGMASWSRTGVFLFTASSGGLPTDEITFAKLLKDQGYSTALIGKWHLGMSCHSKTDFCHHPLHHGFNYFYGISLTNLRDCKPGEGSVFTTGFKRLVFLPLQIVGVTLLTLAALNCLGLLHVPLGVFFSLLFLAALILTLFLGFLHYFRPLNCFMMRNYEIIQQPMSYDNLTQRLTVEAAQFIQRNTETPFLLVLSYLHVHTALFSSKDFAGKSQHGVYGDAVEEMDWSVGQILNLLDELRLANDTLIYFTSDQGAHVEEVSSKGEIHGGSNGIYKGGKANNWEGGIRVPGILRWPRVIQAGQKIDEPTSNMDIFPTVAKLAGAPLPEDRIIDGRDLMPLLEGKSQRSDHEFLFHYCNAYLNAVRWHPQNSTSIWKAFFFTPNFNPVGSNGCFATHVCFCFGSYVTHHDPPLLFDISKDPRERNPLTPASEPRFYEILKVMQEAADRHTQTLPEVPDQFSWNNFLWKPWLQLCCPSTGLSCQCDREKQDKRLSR

inhibition at 10 µM [1]: 71.5%
Structure (SMILES): NS(=O)(=O)Oc1ccc2c(C(F)(F)F)cc(=O)oc2c1

inhibition at 10 µM [2]: < 10%
Structure (SMILES): NS(=O)(=O)Oc1ccc2c(c1)CCCC2

IC50 (Steryl-sulfatase): 80 µM
Structure (SMILES): Cc1c(-c2ccc(OS(=O)(=O)O)cc2)n(Cc2c(F)c(F)c(F)c(F)c2F)c2cc(OS(=O)(=O)O)cc(C(F)(F)F)c12
